Source: US20070148225A1 (ALCON, INC., priority 2005, published 2007)

System: FGFR
Experiment: Kinase inhibition, cell-free enzymatic assay
Assay type: biochemical
Settings: 1 mM ATP

IC50: > 12.5 µM
Structure (SMILES): Cc1ccc(F)c(NC(=O)Nc2ccc(-c3cccc4[nH]nc(N)c34)cc2)c1 [RTKi, N-[4-(3-amino-1H-indazol-4-yl)phenyl]-N′-(2-fluoro-5-methylphenyl) urea]
